{
  "source": "ChEMBL document CHEMBL1144848",
  "about": "“Interaction of a cyclostreptin analogue with the microtubule taxoid site: the covalent reaction rapidly follows binding” (J Nat Prod, 2008)",
  "key": {"Bos taurus [1]": {"organism": "Bos taurus", "assay": "Enhancement of bovine tubulin stability at <=0 degC"}, "Bos taurus [2]": {"organism": "Bos taurus", "assay": "Binding affinity to bovine tubulin assessed as drug level in bound to per mole of colchicine site at <=20 degC after 1 min by covalent binding assay"}, "Bos taurus [3]": {"organism": "Bos taurus", "assay": "Binding affinity to bovine tubulin assessed as drug level in bound to per mole of colchicine site at <=0 degC after 1 min by total binding assay"}, "Bos taurus [4]": {"organism": "Bos taurus", "assay": "Binding affinity to bovine microtubules assessed as drug level in bound to per mole taxoid site at <=0 degC after 1 min by total binding assay"}, "Bos taurus [5]": {"organism": "Bos taurus", "assay": "Binding affinity to bovine tubulin at 5 uM in <=20 degC after 60 mins", "settings": "tested as the 14C-labelled form"}, "Bos taurus [6]": {"organism": "Bos taurus", "assay": "Binding affinity to bovine microtubules assessed as drug level in bound to per mole taxoid site at <=0 degC after 1 min by covalent binding assay"}, "Bos taurus [7]": {"organism": "Bos taurus", "assay": "Binding affinity to bovine microtubules assessed as drug level in bound to per mole taxoid site at <=0 degC after 60 mins by covalent binding assay"}, "Bos taurus [8]": {"organism": "Bos taurus", "assay": "Binding affinity to bovine tubulin assessed as drug level in bound to per mole of colchicine site at <=20 degC after 1 min by total binding assay"}, "Bos taurus [9]": {"organism": "Bos taurus", "assay": "Binding affinity to bovine microtubules assessed as drug level in bound to taxoid site at <=20 degC after 1 min by total binding assay"}, "Bos taurus [10]": {"organism": "Bos taurus", "assay": "Binding affinity to bovine microtubules assessed as drug level in bound to taxoid site at <=0 degC after 60 mins by covalent binding assay"}, "Bos taurus [11]": {"organism": "Bos taurus", "assay": "Binding affinity to bovine tubulin at 5 uM in <=0 degC after 60 mins", "settings": "tested as the 14C-labelled form"}, "Bos taurus [12]": {"organism": "Bos taurus", "assay": "Binding affinity to bovine microtubules assessed as drug level in bound to per mole taxoid site at <=0 degC after 60 mins by total binding assay"}, "Bos taurus [13]": {"organism": "Bos taurus", "assay": "Binding affinity to bovine microtubules assessed as drug level in bound to taxoid site at <=20 degC after 60 mins by total binding assay"}, "Bos taurus [14]": {"organism": "Bos taurus", "assay": "Binding affinity to bovine microtubules assessed as drug level in bound to taxoid site at <=0 degC after 1 min by covalent binding assay"}, "Bos taurus [15]": {"organism": "Bos taurus", "assay": "Binding affinity to bovine tubulin assessed as drug level in bound to per mole of colchicine site at <=20 degC after 60 mins by covalent binding assay"}, "Bos taurus [16]": {"organism": "Bos taurus", "assay": "Binding affinity to bovine tubulin assessed as drug level in bound to per mole of colchicine site at <=0 degC after 60 mins by total binding assay"}, "Bos taurus [17]": {"organism": "Bos taurus", "assay": "Binding affinity to bovine tubulin assessed as drug level in bound to per mole of colchicine site at <=20 degC after 60 mins by total binding assay"}},
  "note": "The source made the active and inactive calls. No cut-off for these calls is given here.",
  "data": [
    {"smiles": "CC(=O)O[C@H]1C(=O)[C@@]2(C)[C@H]([C@H](OC(=O)c3ccccc3)[C@]3(O)C[C@H](OC(=O)[C@H](O)[C@@H](NC(=O)c4ccccc4)c4ccccc4)C(C)=C1C3(C)C)[C@]1(OC(C)=O)CO[C@@H]1C[C@@H]2O", "values": [
      {"measurement": "Activity", "setting": "Bos taurus [1]", "value": "Active"}
    ]},
    {"smiles": "CC(=O)O[C@H]1[C@H](C)[C@@H](O)[C@H]2[C@H]1C=C(C)[C@@H]1C[C@@H]3[C@@H](C4=C5O[C@]3(C)CC[C@H](OC4=O)[C@H]5C)[C@H]21", "values": [
      {"measurement": "stoichiometry", "setting": "Bos taurus [2]", "value": 0.7, "unit": "mol/mol"},
      {"measurement": "Activity", "setting": "Bos taurus [3]", "value": 0.01, "unit": "mol/mol"},
      {"measurement": "stoichiometry", "setting": "Bos taurus [4]", "value": 0.14, "unit": "mol/mol"},
      {"measurement": "Activity", "setting": "Bos taurus [5]", "value": "inactive"},
      {"measurement": "Activity", "setting": "Bos taurus [6]", "value": 0.13, "unit": "mol/mol"},
      {"measurement": "Activity", "setting": "Bos taurus [7]", "value": 0.35, "unit": "mol/mol"},
      {"measurement": "Activity", "setting": "Bos taurus [8]", "value": 0.6, "unit": "mol/mol"},
      {"measurement": "Activity", "setting": "Bos taurus [9]", "value": 0.53, "unit": "mol/mol"},
      {"measurement": "Activity", "setting": "Bos taurus [10]", "value": 0.81, "unit": "mol/mol"},
      {"measurement": "Activity", "setting": "Bos taurus [11]", "value": "inactive"},
      {"measurement": "Activity", "setting": "Bos taurus [12]", "value": 0.38, "unit": "mol/mol"},
      {"measurement": "Activity", "setting": "Bos taurus [13]", "value": 0.93, "unit": "mol/mol"},
      {"measurement": "Activity", "setting": "Bos taurus [14]", "value": 0.46, "unit": "mol/mol"},
      {"measurement": "Activity", "setting": "Bos taurus [15]", "value": 0.88, "unit": "mol/mol"},
      {"measurement": "stoichiometry", "setting": "Bos taurus [16]", "value": 0.06, "unit": "mol/mol"},
      {"measurement": "stoichiometry", "setting": "Bos taurus [17]", "value": 0.81, "unit": "mol/mol"}
    ]}
  ]
}
